Laboratory results taken from patent US20230218710A1, “METHOD OF TREATING CORONAVIRUS INFECTIONS” (priority 2020, published 2023).
Structures can show the parent of a compound that is named as a salt. Square brackets hold non-standard residues; d marks the D form. Peptide text beside a SMILES is read from it.

Tests used:
Apelin Receptor (APJ) [1] = target: T1, Apelin Receptor (APJ) (Homo sapiens, UniProt P35414); assay: Activation of Ras in cultured cells overexpressing APJ; assay type: cell-based; settings: 50 μM peptide, 1 min; 100 nM Pyr-Apelin-13 = positive control
T1 construct: host or cells: CHO-K1 AGTRL1 Gi cells
T1 sequence (P35414 1-380): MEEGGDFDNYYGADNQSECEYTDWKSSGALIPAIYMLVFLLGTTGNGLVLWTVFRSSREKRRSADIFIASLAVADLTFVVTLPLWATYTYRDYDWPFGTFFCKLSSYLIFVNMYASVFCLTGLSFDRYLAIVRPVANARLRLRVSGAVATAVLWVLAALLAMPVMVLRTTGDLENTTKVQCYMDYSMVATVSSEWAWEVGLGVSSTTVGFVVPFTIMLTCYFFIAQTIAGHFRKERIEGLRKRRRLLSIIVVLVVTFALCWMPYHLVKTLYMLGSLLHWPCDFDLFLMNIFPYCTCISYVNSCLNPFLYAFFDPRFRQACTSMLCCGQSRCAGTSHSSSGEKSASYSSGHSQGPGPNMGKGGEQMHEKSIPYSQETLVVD
Procedure: Peptides were initially prepared as 100× stocks in H2O. […] Following a 1 min incubation, the cells were placed on ice, the supernatant was removed, and washed twice with cold HBSS. The HBSS was removed and the cells were immediately lysed in 150 μl/well of lysis buffer included with Active Ras Detection kit (Cell Signaling Technology; Danvers, Mass.); lysis buffer was supplemented with 1 mM PMSF (Millipore-Sigma; Saint Louis, Mo.) and Halt Protease/Phosphatase Inhibitor Cocktail (Thermo-Fisher; Waltham, Mass.) prior to use. The wells were immediately scraped and lysates transferred to microfuge tubes. The samples were then placed on ice for 10 min. […] Visualization and quantification of Ras recovery (GTP-bound/active Ras) in samples were performed with Azure Biosystems C400 Imager and AzureSpot analysis software (Dublin, Calif.). […] Each data point represents the average of duplicate assays.

in vitro = settings: human, pooled human plasma
Procedure: The metabolic stability of the peptides can be assessed in vitro by incubation in plasma and determination of the amount of peptide remaining over time. Peptides (50 μM) were incubated in pooled plasma from mice, monkeys, and humans at 37° C. Samples were removed at intervals up to 3 hours and immediately analyzed for the concentration of intact peptide by LC/MS/MS. The percent of peptide remaining in plasma at each time point was calculated relative to the initial peak area.

Apelin Receptor (APJ) [2] = target: T1, Apelin Receptor (APJ); assay: cell-based; settings: CHO-K1, 0.5 h, read-out: Percent of Pyr-Apelin-13 Control Activity
Procedure: Peptides were initially prepared as 30 mM stock in DMSO and diluted to 3 mM in H2O or directly as 3 mM stock in H2O; used at a final concentration of 10 μM (0-0.1% DMSO).

human APJ = human APJ (Homo sapiens, UniProt P35414); assay: cell-based; settings: CHO-K1, 1.5 h, read-out: Percent of Apelin-13 Control Activity
human APJ, sequence (P32121 whole entry partner, one chain of several): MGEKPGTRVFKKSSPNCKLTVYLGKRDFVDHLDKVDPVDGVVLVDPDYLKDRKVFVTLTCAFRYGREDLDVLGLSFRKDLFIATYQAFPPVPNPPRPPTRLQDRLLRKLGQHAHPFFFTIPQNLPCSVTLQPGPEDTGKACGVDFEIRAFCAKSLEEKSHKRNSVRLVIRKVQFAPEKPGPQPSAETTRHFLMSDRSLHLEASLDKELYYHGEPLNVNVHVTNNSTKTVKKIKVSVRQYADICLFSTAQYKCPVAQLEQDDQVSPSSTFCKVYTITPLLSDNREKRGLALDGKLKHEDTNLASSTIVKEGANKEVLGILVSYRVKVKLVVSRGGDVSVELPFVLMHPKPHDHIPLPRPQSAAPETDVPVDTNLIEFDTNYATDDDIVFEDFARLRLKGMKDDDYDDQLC
Procedure: The effect of the peptides on activation of Apelin Receptor (APJ) can be assessed using an assay to monitor β-Arrestin recruitment in cultured cells overexpressing APJ such as CHO-K1, derived from Chinese hamster ovary. β-Arrestin recruitment assays were performed by Eurofins-DiscoverX (Fremont, Calif.) using CHO-K1 AGTRL1 β-Arrestin cell line (co-expressing ProLink tagged human APJ and Enzyme Acceptor tagged β-Arrestin) and PathHunter detection kit. Peptides were initially prepared either as 10 mM stock in DMSO and used at a final concentration of 10 μM (0.1% DMSO). CHO-K1 AGTRL1 β-Arrestin cells were seed onto 384-well plates in standard medium. […] Following 90 min. incubation at 37° C., β-Arrestin recruitment in response to various treatments was quantified using a chemiluminescent complementation reporter assay to measure association of tagged human APJ (ProLink tag) and tagged β-Arrestin (Enzyme Acceptor tag).

Apelin Receptor (APJ) [3] = target: T1, Apelin Receptor (APJ); assay: Phosphorylation of MEK1 in cultured cells overexpressing APJ; assay type: cell-based; settings: 5 min, 100 nM Pyr-Apelin-13 = positive control, acetate salts
Procedure: Peptides were initially prepared as 100× stocks in H2O. […] Following a 5 min incubation, the supernatant was removed and the cells were placed on ice and washed twice with cold HBSS. The HBSS was removed and the cells were immediately lysed in 300 μl/well of 1× lysis buffer (CST 10× Lysis Buffer; Cell Signaling Technology; Danvers, Mass.); lysis buffer was supplemented with 1 mM PMSF (Millipore-Sigma; Saint Louis, Mo.) and Halt Protease/Phosphatase Inhibitor Cocktail (Thermo-Fisher; Waltham, Mass.) prior to use. The samples were then placed on ice for 10 min, the wells were scraped and lysates were centrifuged at 12,500 rpm for 10 min at 4° C., and p-MEK expression in each sample was measured using Phospho-MEK1 (Ser217/221) Sandwich ELISA kit according to manufacturer's instructions (Cell Signaling Technology; Danvers, Mass.). Absorbance was measured using a Cytation 3 plate reader at […] (BioTek; Winooski, Vt.). […] Each data point represents the average of duplicate assays.

Apelin Receptor (APJ) [4] = target: T1, Apelin Receptor (APJ); assay: Phosphorylation of ERK1/2 in cultured cells overexpressing APJ; assay type: cell-based; settings: 5 min, 100 nM Pyr-Apelin-13 = positive control, acetate salts
Procedure: The effect of the peptides of the current invention on activation of Apelin Receptor (APJ)-mediated signaling can be assessed using an assay to monitor phospho-ERK/phospho-p44/42 MAPK (p-ERK1/2) levels in cultured cells overexpressing Apelin Receptor (APJ) such as CHO-K1, derived from Chinese hamster ovary. Peptides were initially prepared as 100× stocks in H2O. […] Following a 5 min incubation the supernatant was removed and the cells were placed on ice and washed twice with cold HBSS. The HBSS was removed and the cells were immediately lysed in 300 μl/well of 1× lysis buffer (CST 10× Lysis Buffer; Cell Signaling Technology; Danvers, Mass.); lysis buffer was supplemented with 1 mM PMSF (Millipore-Sigma; Saint Louis, Mo.) and Halt Protease/Phosphatase Inhibitor Cocktail (Thermo-Fisher; Waltham, Mass.) prior to use. The samples were then placed on ice for 10 min, wells were scraped and lysates transferred to microfuge tubes. The samples were centrifuged at 12,500 rpm for 10 min at 4° C. and p-ERK1/2 expression in each sample was measured using Phospho-p44/42 MAPK (Thr202/Tyr204) Sandwich ELISA kit according to manufacturer's instructions (Cell Signaling Technology; Danvers, Mass.). Absorbance was measured using a Cytation 3 plate reader at […] (BioTek; Winooski, Vt.). […] Each data point represents the average of duplicate assays.

Molecule | GTP-Ras (% of Positive Control) (Apelin Receptor (APJ) [1]) [%] | remaining at 0.5 h, 50 μM (in vitro) [%] | Emax at 10 µM (Apelin Receptor (APJ) [2]) [%] | Emax at 10 µM (human APJ) [%] | also measured
(PEG12)KRRLLGLVFQSLCG(dA) [SEQ ID NO: 37 Acetate salt] (KRRLLGLVFQSLCGA; N-terminal PEG12, C-terminal D-Ala, acetate salt; (1)..(1) PEG12; (15)..(15) D-Ala) | 79.2 |  |  |  | 
CSCC[C@H](NC(=O)CNC(=O)[C@H](CCSC)NC(=O)[C@H](CCSC)NC(=O)[C@H](CCCNC(=N)N)NC(=O)[C@@H](N)CCCNC(=N)N)C(=O)N[C@H](C(=O)N[C@@H](Cc1ccccc1)C(=O)N[C@@H](CCC(N)=O)C(=O)N[C@@H](CO)C(=O)N[C@@H](CC(C)C)C(=O)N[C@@H](CS)C(=O)NCC(=O)N[C@H](C)C(=O)O)C(C)C [SEQ ID NO: 15 Acetate salt] | 64.9 |  |  |  | 
COCCOCCOCCOCCOCCOCCOCCOCCOCCOCCOCCOCCC(=O)NCCCC[C@H](NC(=O)[C@@H](C)NC(=O)CNC(=O)[C@H](CS)NC(=O)[C@H](CC(C)C)NC(=O)[C@H](CS)NC(=O)[C@H](CCC(N)=O)NC(=O)[C@H](Cc1ccccc1)NC(=O)[C@@H](NC(=O)[C@H](CCSC)NC(=O)CNC(=O)[C@H](CCSC)NC(=O)[C@H](CCSC)NC(=O)[C@H](CCCNC(=N)N)NC(=O)[C@@H](N)CCCNC(=N)N)C(C)C)C(=O)O [compound 21] |  | 29.5 | 34 | 1 | 
CSCC[C@H](NC(=O)[C@H](CCCNC(=N)N)NC(=O)[C@@H](N)CCCNC(=N)N)C(=O)N[C@@H](CCC(=O)O)C(=O)N[C@H](C(=O)N[C@@H](Cc1ccc(O)cc1)C(=O)N[C@@H](CCC(N)=O)C(=O)N[C@@H](CS)C(=O)N[C@@H](CC(C)C)C(=O)N[C@@H](CS)C(=O)NCC(=O)N[C@H](C)C(=O)O)C(C)C [compound 31] (H-RRMEVYQCLCG[dA]-OH; N-terminus and C-terminus assumed) |  | 100 | 2 | 0 | 
CSCC[C@H](NC(=O)CNC(=O)[C@H](CCSC)NC(=O)[C@H](CCSC)NC(=O)[C@H](CCCNC(=N)N)NC(=O)[C@@H](N)CCCNC(=N)N)C(=O)N[C@H](C(=O)N[C@@H](C)C(=O)N[C@@H](CCC(N)=O)C(=O)N[C@@H](CS)C(=O)N[C@@H](CC(C)C)C(=O)N[C@@H](CCC(=O)O)C(=O)NCC(=O)N[C@H](C)C(=O)O)C(C)C [compound 30] (H-RRMMGMVAQCLEG[dA]-OH; N-terminus and C-terminus assumed) |  | 14.9 | 31 | -1 | 
COCCOCCOCCOCCOCCOCCOCCOCCOCCOCCOCCOCCC(=O)N[C@@H](CCCCN)C(=O)N[C@@H](CCCNC(=N)N)C(=O)N[C@@H](CCCNC(=N)N)C(=O)N[C@@H](CCSC)C(=O)N[C@@H](CCSC)C(=O)NCC(=O)N[C@@H](CCSC)C(=O)N[C@H](C(=O)N[C@@H](Cc1ccccc1)C(=O)N[C@@H](CCC(N)=O)C(=O)N[C@@H](CS)C(=O)N[C@@H](CC(C)C)C(=O)N[C@@H](CS)C(=O)NCC(=O)N[C@H](C)C(=O)O)C(C)C [compound 20] |  | 75.3 | 37 | 1 | 
CSCC[C@H](NC(=O)CNC(=O)[C@H](CCSC)NC(=O)[C@H](CCSC)NC(=O)[C@H](CCCNC(=N)N)NC(=O)[C@@H](N)CCCNC(=N)N)C(=O)N[C@H](C(=O)N[C@@H](Cc1ccccc1)C(=O)N[C@@H](CCC(N)=O)C(=O)N[C@@H](CO)C(=O)N[C@@H](CC(C)C)C(=O)N[C@@H](CS)C(=O)NCC(=O)N[C@H](C)C(=O)O)C(C)C [SEQ ID NO: 15 HCl salt] | 90.8 |  |  |  | 
(PEG12)KRRLLGLVFQSLCG(dA) [SEQ ID NO: 37 HCl salt] (KRRLLGLVFQSLCGA; N-terminal PEG12, C-terminal D-Ala, HCl salt; (1)..(1) PEG12; (15)..(15) D-Ala) | 33.2 |  |  |  | 
CSCC[C@H](NC(=O)CNC(=O)[C@H](CCSC)NC(=O)[C@H](CCSC)NC(=O)[C@H](CCCNC(=N)N)NC(=O)[C@@H](N)CCCNC(=N)N)C(=O)N[C@H](C(=O)N[C@@H](Cc1ccccc1)C(=O)N[C@@H](CCC(N)=O)C(=O)N[C@@H](CO)C(=O)N[C@@H](CC(C)C)C(=O)N[C@@H](CS)C(=O)NCC(=O)N[C@H](C)C(=O)O)C(C)C [SEQ ID NO: 15] |  |  |  |  | pMEK1 (% of Positive Control) (Apelin Receptor (APJ) [3]; 2.0 μM peptide): 2.5%; pMEK1 (% of Positive Control) (Apelin Receptor (APJ) [3]; 10 μM peptide): 14.3%; pMEK1 (% of Positive Control) (Apelin Receptor (APJ) [3]; 50 μM peptide): 52.7%; pERK1/2 (% of Positive Control) (Apelin Receptor (APJ) [4]; 0.4 μM peptide): 1.9%; pERK1/2 (% of Positive Control) (Apelin Receptor (APJ) [4]; 2.0 μM peptide): 15.4%; pERK1/2 (% of Positive Control) (Apelin Receptor (APJ) [4]; 10 μM peptide): 44.4%; pERK1/2 (% of Positive Control) (Apelin Receptor (APJ) [4]; 50 μM peptide): 69.7%
CSCC[C@H](NC(=O)CNC(=O)[C@H](CCSC)NC(=O)[C@H](CCSC)NC(=O)[C@H](CCCNC(=N)N)NC(=O)[C@@H](N)CCCNC(=N)N)C(=O)N[C@H](C(=O)N[C@@H](C)C(=O)N[C@@H](CCC(N)=O)C(=O)N[C@@H](CS)C(=O)N[C@@H](CC(C)C)C(=O)N[C@@H](CS)C(=O)NCC(=O)N[C@H](C)C(=O)O)C(C)C [compound 11] |  | 97.9 | 49 | 0 | 
CSCC[C@H](NC(=O)CNC(=O)[C@H](CCSC)NC(=O)[C@H](CCSC)NC(=O)[C@H](CCCNC(=N)N)NC(=O)[C@@H](N)CCCNC(=N)N)C(=O)N[C@H](C(=O)N[C@@H](Cc1ccccc1)C(=O)N[C@@H](CCC(N)=O)C(=O)N[C@@H](CO)C(=O)N[C@@H](CC(C)C)C(=O)N[C@@H](CS)C(=O)NCC(=O)N[C@H](C)C(=O)O)C(C)C [compound 15] |  | 24.3 | 105 | 40 | 
COCCOCCOCCOCCOCCOCCOCCOCCOCCOCCOCCOCCC(=O)N[C@@H](CCCCN)C(=O)N[C@@H](CCCNC(=N)N)C(=O)N[C@@H](CCCNC(=N)N)C(=O)N[C@@H](CCSC)C(=O)N[C@@H](CCSC)C(=O)NCC(=O)N[C@@H](CCSC)C(=O)N[C@H](C(=O)N[C@@H](Cc1ccccc1)C(=O)N[C@@H](CCC(N)=O)C(=O)N[C@@H](CO)C(=O)N[C@@H](CC(C)C)C(=O)N[C@@H](CS)C(=O)NCC(=O)N[C@H](C)C(=O)O)C(C)C [compound 36] |  |  | 101 | 63 | 
